What was measured:
HEK293T cells = experiment: MTT cytotoxicity assay against HEK293T; format: cell-based; conditions: Homo sapiens, HEK-293T, 48 h, read-out: Percentage of inhibition against treated concentrations
Description: (§1) Anticancer activity of 7a–s has been evaluated by MTT [3-(4,5-dimethylthiazol-2-yl)-2,5-diphenyl-tetrazolium bromide] assay and the cell lines HT29 (ATCC: HTB-38), MDA-MB-231 (ATCC: HTB-26), HEK293T (ATCC: CRL-3216) were procured from American type cell culture collection (ATCC), Manassas, USA and other chemicals were procured from Sigma-Aldrich. Then absorbance (used as a measure of cell proliferation) was measured at 570 nm with a kinetic micro-plate reader (BioTek, Winooski, Vermont).
(§2) Having synthesized a series of the title compounds, all of them were screened for their in vitro anticancer profiles against a panel of human colorectal adenocarcinoma (HT29), human breast adenocarcinoma (MDA-MB-231) and mutated Human embryonic kidney 293 (HEK293T) cancer cell lines by using MTT colourmetric assay as per Johan van Meerloo protocol. The three cell lines were cultured in […] medium and supplemented with 10% FBS followed by 100 units/mL penicillin/ streptomycin and were cultured at 37 °C in 5% CO2. Cell proliferation of the growing cells was measured in terms of logarithmic standards. Analytically, all the cultured cells were plated onto 96 well plates at a starting density of 10^5 cells. Then all the cells were treated with title compounds 7a–s for a period of 48 h with different concentrations. After this incubation cell proliferation inhibition was determined by MTT assay and all the experiments were conducted in triplicates and readings were presented as mean ± SD and provided in Tables 1, 2 and 3.

MDA-MB-231 cells = experiment: MTT cytotoxicity assay against MDA-MB-231; format: cell-based; conditions: Homo sapiens, 48 h, read-out: Percentage of inhibition against treated concentrations; for activity at 1 µM: MDAMB231, 1 µM; for activity at 5 µM: MDAMB231, 5 µM; for activity at 10 µM: MDAMB231, 10 µM; for activity at 25 µM: MDAMB231, 25 µM; for activity at 50 µM: MDAMB231, 50 µM
Description: as §1, §2

HT29 cells = experiment: MTT cytotoxicity assay against HT29; format: cell-based; conditions: Homo sapiens, 48 h, read-out: Percentage of inhibition against treated concentrations; for activity at 1 µM: HT-29, HT29, 1 µM; for activity at 5 µM: HT-29, HT29, 5 µM; for activity at 10 µM: HT-29, HT29, 10 µM; for activity at 25 µM: HT-29, HT29, 25 µM; for activity at 50 µM: HT-29, HT29, 50 µM
Description: as §1, §2

melting point [°C]	SMILES	activity at 1 µM (HEK293T cells) [%]	activity at 5 µM (HEK293T cells) [%]	activity at 10 µM (HEK293T cells) [%]	activity at 25 µM (HEK293T cells) [%]	activity at 50 µM (HEK293T cells) [%]	activity at 1 µM (MDA-MB-231 cells) [%]	activity at 5 µM (MDA-MB-231 cells) [%]	activity at 10 µM (MDA-MB-231 cells) [%]	activity at 25 µM (MDA-MB-231 cells) [%]	activity at 50 µM (MDA-MB-231 cells) [%]	activity at 1 µM (HT29 cells) [%]	activity at 5 µM (HT29 cells) [%]	activity at 10 µM (HT29 cells) [%]	activity at 25 µM (HT29 cells) [%]	activity at 50 µM (HT29 cells) [%]
236 to 238	O=C(c1ccc(F)cc1)N1CCn2c3ccccc3c(=O)c3cccc1c32 [Compound 7r, 3-(4-Fluorobenzoyl)-2,3-dihydro-1H,7H-pyrazino[3,2,1-de]acridin-7-one]	97.98 ± 0.88	95.25 ± 0.68	92.81 ± 0.21	88.11 ± 0.25	51.93 ± 0.23	96.33 ± 0.48	86.31 ± 0.21	78.85 ± 0.32	69 ± 0.05	40.7 ± 0.86	91.9 ± 0.93	75.12 ± 0.73	66.15 ± 0.13	55.26 ± 0.23	21.6 ± 0.24
225 to 227	O=C(c1ccccc1F)N1CCn2c3ccccc3c(=O)c3cccc1c32 [Compound 7p, 3-(2-Fluorobenzoyl)-2,3-dihydro-1H,7H-pyrazino[3,2,1-de]acridin-7-one]	96.23 ± 0.74	93.99 ± 0.91	89.17 ± 0.81	82.34 ± 0.34	48.53 ± 0.12	89.82 ± 0.36	68.3 ± 0.79	61.77 ± 0.42	51.43 ± 0.36	30.3 ± 0.84	90.43 ± 0.77	74.71 ± 0.22	65.8 ± 0.76	54.13 ± 0.37	21 ± 0.22
240 to 242	O=C(c1ccc(C(F)(F)F)cc1)N1CCn2c3ccccc3c(=O)c3cccc1c32 [Compound 7o, 3-(4-(Trifluoromethyl)benzoyl)-2,3-dihydro-1H,7H-pyrazino[3,2,1-de]acridin-7-one]	95.33 ± 0.63	91.17 ± 0.26	88.65 ± 0.11	80.68 ± 0.76	48.2 ± 0.79	94.97 ± 0.73	76.63 ± 0.13	70 ± 0.93	61.26 ± 0.29	36.1 ± 0.64	93.92 ± 0.39	77.8 ± 0.91	69.54 ± 0.24	58.23 ± 0.26	24.3 ± 0.76

Second part, the compound before the results:

SMILES	melting point [°C]	activity at 1 µM (HEK293T cells) [%]	activity at 5 µM (HEK293T cells) [%]	activity at 10 µM (HEK293T cells) [%]	activity at 25 µM (HEK293T cells) [%]	activity at 50 µM (HEK293T cells) [%]	activity at 1 µM (MDA-MB-231 cells) [%]	activity at 5 µM (MDA-MB-231 cells) [%]	activity at 10 µM (MDA-MB-231 cells) [%]	activity at 25 µM (MDA-MB-231 cells) [%]	activity at 50 µM (MDA-MB-231 cells) [%]	activity at 1 µM (HT29 cells) [%]	activity at 5 µM (HT29 cells) [%]	activity at 10 µM (HT29 cells) [%]	activity at 25 µM (HT29 cells) [%]	activity at 50 µM (HT29 cells) [%]
Cc1cccnc1C(=O)N1CCn2c3ccccc3c(=O)c3cccc1c32 [Compound 7g, 3-(3-Methylpicolinoyl)-2,3-dihydropyrazino[3,2,1-de]acridin-7(1H)-one]	221 to 223	95.9 ± 0.54	92.62 ± 0.31	88.84 ± 0.07	81.24 ± 0.32	48.2 ± 0.86	81.56 ± 0.48	52.3 ± 0.86	41.7 ± 0.74	14.6 ± 0.34	10.6 ± 0.28	79.09 ± 0.34	58.9 ± 0.93	45.1 ± 0.54	25.5 ± 0.44	10 ± 0.91
O=C(c1ccccc1)N1CCn2c3ccccc3c(=O)c3cccc1c32 [Compound 7l, 3-Benzoyl-2,3-dihydro-1H,7H-pyrazino[3,2,1-de]acridin-7-one]	253 to 255	96.44 ± 0.31	94.13 ± 0.23	89.65 ± 0.12	82.83 ± 0.54	48.8 ± 0.67	95.13 ± 0.85	82.38 ± 0.27	75.3 ± 0.81	65.86 ± 0.47	38.8 ± 0.88	97.17 ± 0.22	83.2 ± 0.99	76.71 ± 0.06	68.88 ± 0.47	30.6 ± 0.87
O=C(c1cccnc1)N1CCn2c3ccccc3c(=O)c3cccc1c32 [Compound 7b, 3-Nicotinoyl-2,3-dihydropyrazino[3,2,1-de]acridin-7(1H)-one]	231 to 233	98.93 ± 0.66	97.41 ± 0.57	96.44 ± 0.46	95.2 ± 0.29	55.1 ± 0.88	86.22 ± 0.83	56.42 ± 0.47	46.91 ± 0.44	32.3 ± 0.16	19 ± 0.62	89.93 ± 0.66	65.63 ± 0.27	52.5 ± 0.82	38.1 ± 0.42	19.4 ± 0.35
O=C(c1ccc(O)cc1)N1CCn2c3ccccc3c(=O)c3cccc1c32 [Compound 7k, 3-(4-hydroxybenzoyl)-2,3-dihydro-1H,7H-pyrazino[3,2,1-de]acridin-7-one]	265 to 267	99.55 ± 0.46	97.77 ± 0.09	96.79 ± 0.17	95.46 ± 0.43	56.26 ± 0.12	97.31 ± 0.74	88.16 ± 0.43	80.54 ± 0.54	70.48 ± 0.17	41.5 ± 0.91	96.6 ± 0.99	81.84 ± 0.11	74.68 ± 0.64	66.23 ± 0.18	28 ± 0.96
O=c1c2ccccc2n2c3c(cccc13)N(c1nccs1)CC2 [Compound 7j, 3-(Thiazol-2-yl)-2,3-dihydropyrazino[3,2,1-de]acridin-7(1H)-one]	239 to 241	96.71 ± 0.63	94.47 ± 0.83	91.28 ± 0.48	84.17 ± 0.37	49.6 ± 0.38	87.9 ± 0.95	58.4 ± 0.88	48.2 ± 0.88	39.53 ± 0.23	23.3 ± 0.98	89.55 ± 0.11	64.84 ± 0.45	51.5 ± 0.94	31.05 ± 0.19	17.4 ± 0.87

— PMC7691360, “Synthesis of novel cytotoxic tetracyclic acridone derivatives and study of their molecular docking, ADMET, QSAR, bioactivity and protein binding properties” (Scientific Reports, 2020)
